# According to US10233168B2, “14-hydroxy-docosahexaenoic acid compounds” (The Brigham And Women's Hospital, Inc., priority 2008, dated 2019):
# Experiments:
# peritoneal MΦs [1] = assay: MΦ phagocytosis of FITC-labeled zymosan; type: cell-based, mice; conditions: for enhancement of MΦ phagocytosis of zymosan: 15 min compound, then FITC-labeled zymosan 30 min, 37° C.
# Protocol: (§1) The 7,14-dihydroxy-containing products were isolated from methyl formate fractions obtained from murine MΦs via RP-HPLC (Agilent 1100 series) using a Beckman C18 column (250 mm×10 mm×5 μm) and methanol/water (65/35; v/v) ramped to 85/15 (v/v) for 30 min. Their actions were assessed in murine zymosan A-induced peritonitis (19). Peritonitis was initiated by intraperitoneal (i.p.) administration of 1 mg zymosan A in 1 ml of sterile saline, and each compound was administered i.v. 5 min before zymosan. At 2 h, mice were sacrificed, and peritoneal exudates harvested (5 ml DPBS^−/− without calcium and magnesium), identified and enumerated by light microscopy and FACS. Resident MΦs were identified by FACS (8). To assess pro-resolving actions, peritoneal MΦs (24-well plate, 10^5 cells/well) from naïve mice were incubated with each compound (15 min, pH 7.45) followed by addition of FITC-labeled Zymosan A (30 min, 37° C.). Trypan blue was used to quench extracellular zymosan particles (1 min, 37° C.) followed by DPBS^+/+ (pH 7.45), and phagocytosis quantified using a Perkin-Elmer Victor^3.
# PMN = assay: murine zymosan A-induced peritonitis, exudate PMN; type: in vivo, mice
# Protocol: as §1
# peritoneal MΦs [2] = conditions: literature ref. 13; cited from earlier work
# lipoxygenase (LOX) = assay: LC/MS/MS lipidomics of peritonitis exudates with LOX inhibitor; type: in vivo, mice; conditions: exudates obtained with the LOX inhibitor, n=3
# Protocol: In view of the actions of specialized chemical mediators in resolution (6, 7), 17-HDHA was monitored as a biomarker of activation and conversion of endogenous DHA, as well as employed targeted lipidomics to query whether other pathways were operative (see FIG. 1). During this course of peritonitis, PMN rapidly entered, reaching max within 12 h. In this self-resolving system (19), PMN declined and were lost from exudates, thus defining resolution (FIG. 1). Unbiased targeted mediator lipidomics employing LC/MS/MS-based analyses were carried out with these exudates. In addition to 17S-HDHA, a marker of resolvin and protectin biosynthesis (6), endogenous DHA was converted to 14S-hydroxydocosahexaenoic acid (14S-HDHA).
smiles,measurement,setting,value
"CC/C=C\C/C=C\CC(O)C=CC=CC=CC(O)C/C=C\CCC(=O)O (stereo not drawn) [MaR1, 7,14-dihydroxydocosa-4Z,8,10,12,16Z,19Z-hexaenoic acid]",enhancement of MΦ phagocytosis of zymosan,peritoneal MΦs [1]; FIG. 3D,enhances phagocytosis
same,potency compared to RvE1 and PD1,"peritoneal MΦs [1]; FIG. 3, inset comparison at 1 nM",comparable potency
same,dose (as low as) that potently reduced infiltration of PMN into sites of inflammation,"PMN; i.v. before i.p. zymosan, dose response FIG. 3C",0.2 ng/mouse
same,anti-inflammatory action regulating PMN entry into zymosan-induced peritonitis,"PMN; nanogram quantities per mouse, FIG. 3A",stopping PMN infiltration
"CC/C=C\C[C@H](O)\C=C/C=C/C=C/[C@H](O)C/C=C\C/C=C\CCC(=O)O [PD1, 10R,17S-dihydroxydocosa-4Z,7Z,11E,13E,15Z,19Z-hexaenoic acid]",concentration (as low as) enhancing MΦ phagocytosis,peritoneal MΦs [2],1 nM
"CCCCC[C@H](O)/C=C/[C@H]1[C@H](O)CC(=O)[C@@H]1C/C=C\CCCC(=O)O [PGE2, prostaglandin E2, reference compound]",enhancement of MΦ phagocytosis of zymosan,peritoneal MΦs [1]; FIG. 3D,did not enhance phagocytosis
"CC[C@@H](O)/C=C/C=C\C[C@@H](O)/C=C/C=C/C=C\[C@@H](O)CCCC(=O)O [RvE1, 5S,12R,18R-trihydroxyeicosa-6Z,8E,10E,14Z,16E-pentaenoic acid]",concentration (as low as) enhancing MΦ phagocytosis,peritoneal MΦs [2],1 nM
"CC/C=C\C/C=C\C[C@H](O)/C=C/C=C\C=C\[C@@H](O)C/C=C\CCC(=O)O [double dioxygenation product, 7S,14S-dihydroxydocosa-4Z,8E,10Z,12E,16Z,19Z-hexaenoic acid]",enhancement of MΦ phagocytosis of zymosan,peritoneal MΦs [1]; FIG. 3D,active
same,potency in phagocytosis compared with the new product isolated from MΦs,"peritoneal MΦs [1]; direct comparison, FIG. 3D",less potent
same,PMN infiltration in zymosan-induced peritonitis,"PMN; 0.1 ng dose per mouse, leukocytes enumerated after 2 h, FIG. 3B",reduced PMN infiltration
same,potency on PMN infiltration compared with the MΦ isolated material,"PMN; 0.1 ng/mouse each, FIG. 3B",less potent
O=c1ccc2cc(O)c(O)cc2o1 [esculetin],17S-HDHA and 14S-HDHA in peritonitis exudates,lipoxygenase (LOX),Neither product was identified
